Assay results from ChEMBL document CHEMBL1201862, “PubChem BioAssay data set” (2004).
Where a name gives a salt, the structure may show the parent alone. Blank lines part the entries; values can stand above or below the compound they belong to. Calls of active or inactive are those of the source.

Experiments:
[1] = target: Melanocortin receptor 4 (Homo sapiens, UniProt P32245); format: functional, cell-based;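 also: Cell-based assay with luminescence read-out, confirmatory dose-response testing for agonist activity of biased ligands at MC4R; human U2OS cells with tagged receptor and beta-arrestin; potency of agonists that increase receptor coupling to beta-arrestin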
[2] = Artemis endonuclease inhibitor potency, dose response, biochemical, fluorescence intensity (AID 720701); format: functional;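 also: Artemis endonuclease enzyme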
[3] = AlphaScreen signal interference compounds, dose response, artefact control for ARNT-TACC3 interaction inhibitor project, biochemical, luminescence, cherry-pick (AID 651705); format: functional;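 also: AlphaScreen bead proximity signal that flags compounds interfering with the detection technology; potency reflects signal decrease which marks the compound as an assay artifact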
[4] = NIH-3T3 fibroblast cytotoxicity, dose response, cytotoxicity control for antifungal single agent project, cell-based, Alamar Blue, dry powder (AID 602188); format: functional
[5] = target: Beta-galactosidase (Escherichia coli, UniProt Q8VNN2); test: beta-galactosidase enzyme inhibitors and activators, dose response, artefact control for CCR6 antagonist project, biochemical, E. coli enzyme, set 3 (AID 504712); format: functional
[6] = inhibitors of intracellular T. cruzi replication, confirmation, NIH3T3 host cells, beta-gal luminescence (AID 2044); format: functional, cell-based;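 also: intracellular parasites grown in NIH/3T3 mouse fibroblasts as host cells; luminescent beta-galactosidase reporter signal from transgenic T. cruzi replicating inside host cells; inhibitors lower the luminescence signal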
[7] = target: ATP-dependent molecular chaperone HSP82 (Candida albicans (strain WO-1) (Yeast), UniProt C4YTQ8); test: loss of DOC-induced GRE-beta-galactosidase reporter signal, dose response, Hsp90 inhibitor project, S. cerevisiae, luminescence (AID 2400); format: functional, cell-based;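 also: beta-galactosidase luminescence from glucocorticoid response element reporter as proxy for Hsp90 function; inhibitor potency where signal loss means Hsp90 inhibition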
[8] = C. albicans growth with fluconazole, confirmation, fluorescence, retest (AID 2467); format: functional, cell-based
[9] = target: Heat shock protein HSP 90-alpha (Homo sapiens, UniProt P07900); format: functional, organism-based
[10] = cytotoxicity toward NIH3T3 fibroblasts, dose response, counter-screen, cell-based, ATP luminescence, mouse fibroblasts (AID 2010); format: functional;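 also: cells exposed to compound for about 90 hours before reading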
[11] = target: T1, Serine/threonine-protein phosphatase (Candida dubliniensis (strain CD36 / CBS 7987 / NCPF 3949 / NRRLY-17841) (Yeast), UniProt B9W6M3); test: calcineurin pathway inhibitors in yeast reporter, dose response, S. cerevisiae, CDRE-lacZ, luminescence, secondary (AID 2388); format: functional, cell-based;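 also: yeast reporter cells carrying a calcineurin-responsive lacZ construct stimulated with calcium chloride; luminescent beta-galactosidase reporter signal in whole cells rather than isolated phosphatase activity; potency for inhibition where a drop in reporter signal means calcineurin blockade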
T1 sequence (B9W6M3 whole entry): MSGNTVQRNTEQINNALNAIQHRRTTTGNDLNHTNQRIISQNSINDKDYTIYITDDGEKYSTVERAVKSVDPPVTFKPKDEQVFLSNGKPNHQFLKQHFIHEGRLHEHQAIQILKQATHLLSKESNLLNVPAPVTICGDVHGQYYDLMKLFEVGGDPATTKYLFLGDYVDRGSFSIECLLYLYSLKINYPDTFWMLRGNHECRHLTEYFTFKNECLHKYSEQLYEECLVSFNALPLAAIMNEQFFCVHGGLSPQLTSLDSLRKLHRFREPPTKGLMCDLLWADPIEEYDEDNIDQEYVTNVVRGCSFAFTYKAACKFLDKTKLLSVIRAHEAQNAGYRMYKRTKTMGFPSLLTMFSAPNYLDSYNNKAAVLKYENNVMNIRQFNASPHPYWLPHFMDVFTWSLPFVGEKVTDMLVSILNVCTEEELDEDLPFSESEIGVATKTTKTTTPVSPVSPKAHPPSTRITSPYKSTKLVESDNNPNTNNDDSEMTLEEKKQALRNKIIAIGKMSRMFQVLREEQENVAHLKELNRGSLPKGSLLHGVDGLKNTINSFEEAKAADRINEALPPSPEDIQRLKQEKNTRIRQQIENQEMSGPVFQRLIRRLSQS

[12] = NIH-3T3 fibroblast cytotoxicity, dose response, cytotoxicity control, cell-based, fluorescence, Alamar Blue, secondary assay (AID 2327); format: functional;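 also: NIH-3T3 mouse fibroblasts cultured with fluconazole at 8 µg/mL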
[13] = target: Ras and Rab interactor 1/Tyrosine-protein kinase ABL1 (Homo sapiens, UniProt P00519+Q13671); format: functional;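 also: biochemical TR-FRET dose-response test measuring inhibition of binding between Rin1 and Abl proteins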
[14] = target: Prothrombin (Bos taurus, UniProt P00735); test: thrombin inhibition, dose response, biochemical, fluorescence polarization, uHTS hits (AID 602369); format: functional
[15] = target: 26S proteasome non-ATPase regulatory subunit 14 (Homo sapiens, UniProt O00487); test: inhibition of proteasome subunit RPN11 – biochemical, fluorescence polarization, uHTS hits, confirmation (AID 602368); format: functional
[16] = target: 72 kDa type IV collagenase (Homo sapiens, UniProt P08253); test: Dose Response validation of uHTS RPN11 inhibitor hits using a MMP-2 Fluorescence assay.; format: functional
[17] = target: T2, Aryl hydrocarbon receptor (Homo sapiens, UniProt P35869); conditions: Potency;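 also: confirmatory quantitative high-throughput screen measuring activation of the AhR signaling pathway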
T2 sequence (P35869 whole entry): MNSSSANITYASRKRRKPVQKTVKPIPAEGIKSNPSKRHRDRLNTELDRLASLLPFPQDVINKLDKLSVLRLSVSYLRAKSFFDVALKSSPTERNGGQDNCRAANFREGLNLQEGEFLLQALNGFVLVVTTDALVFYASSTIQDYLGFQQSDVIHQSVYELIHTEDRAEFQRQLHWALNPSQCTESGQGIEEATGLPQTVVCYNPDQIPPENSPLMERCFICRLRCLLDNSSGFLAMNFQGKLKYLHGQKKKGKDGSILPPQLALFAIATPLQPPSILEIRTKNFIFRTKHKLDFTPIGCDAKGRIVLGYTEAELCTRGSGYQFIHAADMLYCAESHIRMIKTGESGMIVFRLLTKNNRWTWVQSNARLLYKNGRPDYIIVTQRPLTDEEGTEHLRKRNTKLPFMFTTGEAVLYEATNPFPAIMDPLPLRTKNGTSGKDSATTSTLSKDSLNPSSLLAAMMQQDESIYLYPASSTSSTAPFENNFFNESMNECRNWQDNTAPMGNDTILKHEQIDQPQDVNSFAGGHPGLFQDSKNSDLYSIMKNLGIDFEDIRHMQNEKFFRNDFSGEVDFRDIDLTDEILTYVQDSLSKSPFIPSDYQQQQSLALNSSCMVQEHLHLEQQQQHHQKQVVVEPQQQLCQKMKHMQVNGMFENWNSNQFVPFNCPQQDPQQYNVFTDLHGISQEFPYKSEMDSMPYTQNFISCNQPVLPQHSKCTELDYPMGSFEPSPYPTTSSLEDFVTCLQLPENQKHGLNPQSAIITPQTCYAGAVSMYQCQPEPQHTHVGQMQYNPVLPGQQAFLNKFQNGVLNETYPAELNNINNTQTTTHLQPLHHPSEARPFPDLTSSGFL

[18] = target: T3, Apoptotic protease-activating factor 1 (Homo sapiens, UniProt O14727); test: SAR analysis of small molecule Activators of Apaf-1 in a Fluorescent assay.; format: functional; conditions: read-out: EC50_Mean;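 also: caspase-3 cleavage of fluorogenic Rh110 DEVD substrate downstream of apoptosome activation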
T3 sequence (O14727 whole entry): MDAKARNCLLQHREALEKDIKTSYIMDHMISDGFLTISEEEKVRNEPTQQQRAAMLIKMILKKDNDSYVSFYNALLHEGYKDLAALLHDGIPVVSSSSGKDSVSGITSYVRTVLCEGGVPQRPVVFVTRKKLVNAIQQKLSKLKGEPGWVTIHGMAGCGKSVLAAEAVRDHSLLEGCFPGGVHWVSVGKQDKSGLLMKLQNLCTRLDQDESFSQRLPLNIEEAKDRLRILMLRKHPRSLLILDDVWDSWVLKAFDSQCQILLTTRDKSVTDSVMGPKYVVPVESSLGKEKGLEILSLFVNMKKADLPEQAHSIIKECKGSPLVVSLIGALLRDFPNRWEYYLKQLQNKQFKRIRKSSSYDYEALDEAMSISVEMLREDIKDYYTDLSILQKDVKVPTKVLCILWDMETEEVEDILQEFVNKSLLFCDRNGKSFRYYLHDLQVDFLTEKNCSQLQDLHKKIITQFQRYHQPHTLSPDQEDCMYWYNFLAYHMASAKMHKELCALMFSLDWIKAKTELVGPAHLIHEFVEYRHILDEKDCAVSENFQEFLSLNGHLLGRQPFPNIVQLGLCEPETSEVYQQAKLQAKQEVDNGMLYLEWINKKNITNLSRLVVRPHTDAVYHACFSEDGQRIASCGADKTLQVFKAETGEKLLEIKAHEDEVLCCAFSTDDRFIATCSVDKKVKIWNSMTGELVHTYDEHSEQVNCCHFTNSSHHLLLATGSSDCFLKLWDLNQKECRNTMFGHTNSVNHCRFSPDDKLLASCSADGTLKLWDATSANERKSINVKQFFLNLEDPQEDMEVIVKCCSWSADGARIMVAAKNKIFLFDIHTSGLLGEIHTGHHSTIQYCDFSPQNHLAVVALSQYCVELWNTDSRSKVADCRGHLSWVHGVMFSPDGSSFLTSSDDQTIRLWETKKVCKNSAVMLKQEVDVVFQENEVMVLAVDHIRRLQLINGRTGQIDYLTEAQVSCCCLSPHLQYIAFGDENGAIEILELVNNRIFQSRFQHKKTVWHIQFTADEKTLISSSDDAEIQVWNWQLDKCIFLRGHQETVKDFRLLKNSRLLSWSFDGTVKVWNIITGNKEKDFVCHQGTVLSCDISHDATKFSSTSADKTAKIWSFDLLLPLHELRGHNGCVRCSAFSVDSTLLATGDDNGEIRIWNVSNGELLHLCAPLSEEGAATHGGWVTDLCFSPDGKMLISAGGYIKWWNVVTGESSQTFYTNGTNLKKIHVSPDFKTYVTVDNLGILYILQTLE

[19] = target: Serine/threonine-protein kinase pim-1 (Homo sapiens, UniProt P11309); format: functional
[20] = target: Dual specificity protein kinase CLK4 (Homo sapiens, UniProt Q9HAZ1); format: functional
[21] = target: Cell division cycle 7-related protein kinase (Homo sapiens, UniProt O00311); format: functional;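 also: value obtained from a kinome-wide kinase panel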
[22] = target: Homeodomain-interacting protein kinase 2 (Homo sapiens, UniProt Q9H2X6); format: functional;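 also: measured within a kinome-wide kinase profiling panel, HIPK2 being one panel member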
[23] = target: Glycogen synthase kinase-3 beta (Homo sapiens, UniProt P49841); format: functional;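 also: value comes from a broad kinome profiling panel, with GSK3B as the panel member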
[24] = target: cAMP-dependent protein kinase catalytic subunit alpha (Homo sapiens, UniProt P17612); format: functional
[25] = target: Interleukin-1 receptor-associated kinase 4 (Homo sapiens, UniProt Q9NWZ3); format: functional
[26] = target: Mitogen-activated protein kinase kinase kinase kinase 4 (Homo sapiens, UniProt O95819); format: functional
[27] = target: T4, DNA repair and recombination protein RAD54-like (Homo sapiens, UniProt Q92698); test: inhibitors of human RAD54 branch migration, confirmation, biochemical, fluorescence, cherry-picked samples, dose series (AID 651657); format: functional
T4 sequence (Q92698 whole entry): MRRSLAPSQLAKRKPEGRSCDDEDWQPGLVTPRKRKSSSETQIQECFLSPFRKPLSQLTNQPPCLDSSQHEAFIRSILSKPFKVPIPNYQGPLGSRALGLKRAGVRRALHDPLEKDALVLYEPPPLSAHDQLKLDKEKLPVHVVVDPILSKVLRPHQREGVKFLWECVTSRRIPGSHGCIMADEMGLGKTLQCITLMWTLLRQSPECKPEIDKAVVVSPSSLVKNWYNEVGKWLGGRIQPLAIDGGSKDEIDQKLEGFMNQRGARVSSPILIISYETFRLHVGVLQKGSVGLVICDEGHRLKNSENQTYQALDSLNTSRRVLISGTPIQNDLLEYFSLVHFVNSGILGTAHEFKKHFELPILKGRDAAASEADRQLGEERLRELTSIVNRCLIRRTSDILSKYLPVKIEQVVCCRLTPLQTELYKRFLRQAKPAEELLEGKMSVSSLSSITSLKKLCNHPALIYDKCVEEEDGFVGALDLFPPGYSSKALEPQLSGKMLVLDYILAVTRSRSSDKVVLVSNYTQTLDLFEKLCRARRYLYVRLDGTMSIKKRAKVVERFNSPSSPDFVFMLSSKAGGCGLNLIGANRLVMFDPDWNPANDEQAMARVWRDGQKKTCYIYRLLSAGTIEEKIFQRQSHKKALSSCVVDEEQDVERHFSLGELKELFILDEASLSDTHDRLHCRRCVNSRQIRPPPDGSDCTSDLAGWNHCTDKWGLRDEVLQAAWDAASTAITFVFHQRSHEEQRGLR

[28] = target: T5, Interleukin-8 (Homo sapiens, UniProt P10145); test: Dose Response confirmation of uHTS small molecule hits for cystic fibrosis induced NFkb Inhibitors in a TNFa-induced IL8 counterscreen.; format: functional; conditions: read-out: IC50_Mean
[29] = target: Kallikrein-7 (Homo sapiens, UniProt P49862); test: Fluorescence Intensity-based biochemical primary high throughput dose response assay to identify activators of kallikrein-7 (K7) zymogen.
[30] = target: T5, Interleukin-8; test: Dose Response confirmation of uHTS small molecule hits for cystic fibrosis induced NFkb Inhibitors in a PAF-induced IL8 counterscreen.; format: functional; conditions: read-out: IC50_Mean

T5 sequence (P10145 whole entry): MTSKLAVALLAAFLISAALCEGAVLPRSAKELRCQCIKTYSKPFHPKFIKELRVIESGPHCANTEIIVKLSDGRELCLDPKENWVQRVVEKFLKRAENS
Dual specificity protein kinase CLK4, sequence (Q9HAZ1 whole entry): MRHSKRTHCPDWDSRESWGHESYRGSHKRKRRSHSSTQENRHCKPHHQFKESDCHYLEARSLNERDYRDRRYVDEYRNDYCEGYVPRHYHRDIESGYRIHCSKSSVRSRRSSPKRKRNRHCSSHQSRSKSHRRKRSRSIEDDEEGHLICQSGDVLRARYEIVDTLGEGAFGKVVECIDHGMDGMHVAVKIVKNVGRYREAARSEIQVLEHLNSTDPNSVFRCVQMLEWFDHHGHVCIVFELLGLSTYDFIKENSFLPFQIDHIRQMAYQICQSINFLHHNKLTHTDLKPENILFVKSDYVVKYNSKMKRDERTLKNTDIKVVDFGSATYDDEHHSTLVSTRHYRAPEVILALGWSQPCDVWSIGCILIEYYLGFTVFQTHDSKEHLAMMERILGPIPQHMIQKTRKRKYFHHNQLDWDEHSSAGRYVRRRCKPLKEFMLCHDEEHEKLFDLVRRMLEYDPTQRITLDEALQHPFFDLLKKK
Melanocortin receptor 4, sequence (P32245 whole entry): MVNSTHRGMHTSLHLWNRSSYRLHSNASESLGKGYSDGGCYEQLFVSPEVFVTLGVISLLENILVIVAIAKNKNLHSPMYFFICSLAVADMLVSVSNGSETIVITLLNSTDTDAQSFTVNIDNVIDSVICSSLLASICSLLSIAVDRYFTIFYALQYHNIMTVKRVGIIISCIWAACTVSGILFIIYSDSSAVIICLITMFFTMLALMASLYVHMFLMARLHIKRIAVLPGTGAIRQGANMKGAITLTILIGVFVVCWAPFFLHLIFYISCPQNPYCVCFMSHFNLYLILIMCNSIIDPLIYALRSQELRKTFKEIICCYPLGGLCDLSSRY
Ras and Rab interactor 1/Tyrosine-protein kinase ABL1, sequence (P00519 whole entry): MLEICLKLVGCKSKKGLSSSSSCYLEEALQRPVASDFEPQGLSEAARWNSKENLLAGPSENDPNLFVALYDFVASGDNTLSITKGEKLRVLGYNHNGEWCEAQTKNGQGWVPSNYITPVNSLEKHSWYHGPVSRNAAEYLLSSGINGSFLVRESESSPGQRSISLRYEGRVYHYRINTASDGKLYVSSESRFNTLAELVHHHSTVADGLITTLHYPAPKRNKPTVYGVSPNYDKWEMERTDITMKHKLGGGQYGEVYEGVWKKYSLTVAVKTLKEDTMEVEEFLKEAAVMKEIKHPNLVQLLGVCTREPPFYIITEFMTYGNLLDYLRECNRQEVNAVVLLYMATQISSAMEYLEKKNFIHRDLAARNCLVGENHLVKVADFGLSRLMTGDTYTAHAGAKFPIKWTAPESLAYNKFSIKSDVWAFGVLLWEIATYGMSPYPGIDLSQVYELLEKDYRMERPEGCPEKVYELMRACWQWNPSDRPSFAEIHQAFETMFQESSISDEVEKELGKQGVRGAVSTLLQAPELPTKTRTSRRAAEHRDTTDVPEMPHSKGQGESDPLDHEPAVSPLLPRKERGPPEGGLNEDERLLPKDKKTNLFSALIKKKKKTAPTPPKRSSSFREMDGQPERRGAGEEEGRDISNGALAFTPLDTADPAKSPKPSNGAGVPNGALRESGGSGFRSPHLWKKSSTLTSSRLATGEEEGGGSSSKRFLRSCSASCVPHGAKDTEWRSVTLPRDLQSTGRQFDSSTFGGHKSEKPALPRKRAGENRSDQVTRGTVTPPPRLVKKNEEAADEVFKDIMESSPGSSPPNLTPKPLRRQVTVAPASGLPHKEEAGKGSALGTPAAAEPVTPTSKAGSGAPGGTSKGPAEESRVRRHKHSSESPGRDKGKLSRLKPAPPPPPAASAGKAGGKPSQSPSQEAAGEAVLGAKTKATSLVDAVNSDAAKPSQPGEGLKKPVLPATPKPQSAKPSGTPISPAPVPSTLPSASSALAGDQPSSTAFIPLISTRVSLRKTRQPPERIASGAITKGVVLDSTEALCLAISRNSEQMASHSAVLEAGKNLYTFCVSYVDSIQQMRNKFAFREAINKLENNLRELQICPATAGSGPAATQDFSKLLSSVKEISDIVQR
Ras and Rab interactor 1/Tyrosine-protein kinase ABL1, sequence (Q13671 whole entry): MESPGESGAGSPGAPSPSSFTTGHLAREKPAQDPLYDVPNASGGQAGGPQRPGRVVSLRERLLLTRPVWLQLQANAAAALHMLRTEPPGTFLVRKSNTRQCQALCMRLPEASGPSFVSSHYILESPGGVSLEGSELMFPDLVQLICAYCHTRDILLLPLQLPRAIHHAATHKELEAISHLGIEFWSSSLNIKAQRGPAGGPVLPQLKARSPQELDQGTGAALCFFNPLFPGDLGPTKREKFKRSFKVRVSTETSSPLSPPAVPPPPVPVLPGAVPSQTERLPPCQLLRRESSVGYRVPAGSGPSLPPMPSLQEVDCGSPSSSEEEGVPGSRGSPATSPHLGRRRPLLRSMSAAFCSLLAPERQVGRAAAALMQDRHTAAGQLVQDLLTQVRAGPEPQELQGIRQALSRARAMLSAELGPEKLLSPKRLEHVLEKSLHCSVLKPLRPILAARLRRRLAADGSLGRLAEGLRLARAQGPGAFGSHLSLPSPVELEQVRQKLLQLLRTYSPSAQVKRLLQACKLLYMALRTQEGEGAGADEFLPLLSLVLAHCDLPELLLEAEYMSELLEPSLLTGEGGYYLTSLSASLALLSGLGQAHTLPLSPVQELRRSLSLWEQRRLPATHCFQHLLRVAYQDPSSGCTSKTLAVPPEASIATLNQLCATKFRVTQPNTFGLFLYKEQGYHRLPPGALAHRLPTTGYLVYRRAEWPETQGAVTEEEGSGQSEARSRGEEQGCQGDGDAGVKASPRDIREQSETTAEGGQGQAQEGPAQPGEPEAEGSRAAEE
72 kDa type IV collagenase, sequence (P08253 whole entry): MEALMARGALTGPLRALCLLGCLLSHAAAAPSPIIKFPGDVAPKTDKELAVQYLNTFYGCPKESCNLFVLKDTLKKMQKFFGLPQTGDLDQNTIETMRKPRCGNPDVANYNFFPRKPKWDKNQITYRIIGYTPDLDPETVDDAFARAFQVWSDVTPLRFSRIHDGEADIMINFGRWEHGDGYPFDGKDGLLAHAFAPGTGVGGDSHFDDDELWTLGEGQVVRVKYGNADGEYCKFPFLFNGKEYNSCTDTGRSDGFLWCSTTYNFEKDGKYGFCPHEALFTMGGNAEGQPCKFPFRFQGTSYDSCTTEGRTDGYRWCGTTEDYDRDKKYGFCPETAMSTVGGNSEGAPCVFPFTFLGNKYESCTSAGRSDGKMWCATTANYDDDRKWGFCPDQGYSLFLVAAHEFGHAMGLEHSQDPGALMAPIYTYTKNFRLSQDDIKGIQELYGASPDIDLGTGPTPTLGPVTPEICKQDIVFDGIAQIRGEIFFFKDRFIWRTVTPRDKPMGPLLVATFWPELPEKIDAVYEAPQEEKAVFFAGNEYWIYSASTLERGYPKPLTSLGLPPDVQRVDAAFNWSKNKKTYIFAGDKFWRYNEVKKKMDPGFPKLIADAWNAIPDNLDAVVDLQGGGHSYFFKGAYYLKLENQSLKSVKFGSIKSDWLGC
Interleukin-1 receptor-associated kinase 4, sequence (Q9NWZ3 whole entry): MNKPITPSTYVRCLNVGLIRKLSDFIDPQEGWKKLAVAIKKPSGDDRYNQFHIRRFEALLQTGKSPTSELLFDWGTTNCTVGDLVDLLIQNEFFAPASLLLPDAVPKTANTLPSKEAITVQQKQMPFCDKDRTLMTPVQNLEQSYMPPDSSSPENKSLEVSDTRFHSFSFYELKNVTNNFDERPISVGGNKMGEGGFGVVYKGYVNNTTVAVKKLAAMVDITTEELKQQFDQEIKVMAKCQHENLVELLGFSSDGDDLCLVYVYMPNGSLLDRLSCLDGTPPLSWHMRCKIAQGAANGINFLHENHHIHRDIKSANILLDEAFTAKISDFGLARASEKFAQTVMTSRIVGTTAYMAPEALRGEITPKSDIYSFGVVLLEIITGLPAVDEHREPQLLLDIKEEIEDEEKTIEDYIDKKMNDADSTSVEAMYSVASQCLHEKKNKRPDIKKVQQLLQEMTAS
Beta-galactosidase, sequence (Q8VNN2 whole entry): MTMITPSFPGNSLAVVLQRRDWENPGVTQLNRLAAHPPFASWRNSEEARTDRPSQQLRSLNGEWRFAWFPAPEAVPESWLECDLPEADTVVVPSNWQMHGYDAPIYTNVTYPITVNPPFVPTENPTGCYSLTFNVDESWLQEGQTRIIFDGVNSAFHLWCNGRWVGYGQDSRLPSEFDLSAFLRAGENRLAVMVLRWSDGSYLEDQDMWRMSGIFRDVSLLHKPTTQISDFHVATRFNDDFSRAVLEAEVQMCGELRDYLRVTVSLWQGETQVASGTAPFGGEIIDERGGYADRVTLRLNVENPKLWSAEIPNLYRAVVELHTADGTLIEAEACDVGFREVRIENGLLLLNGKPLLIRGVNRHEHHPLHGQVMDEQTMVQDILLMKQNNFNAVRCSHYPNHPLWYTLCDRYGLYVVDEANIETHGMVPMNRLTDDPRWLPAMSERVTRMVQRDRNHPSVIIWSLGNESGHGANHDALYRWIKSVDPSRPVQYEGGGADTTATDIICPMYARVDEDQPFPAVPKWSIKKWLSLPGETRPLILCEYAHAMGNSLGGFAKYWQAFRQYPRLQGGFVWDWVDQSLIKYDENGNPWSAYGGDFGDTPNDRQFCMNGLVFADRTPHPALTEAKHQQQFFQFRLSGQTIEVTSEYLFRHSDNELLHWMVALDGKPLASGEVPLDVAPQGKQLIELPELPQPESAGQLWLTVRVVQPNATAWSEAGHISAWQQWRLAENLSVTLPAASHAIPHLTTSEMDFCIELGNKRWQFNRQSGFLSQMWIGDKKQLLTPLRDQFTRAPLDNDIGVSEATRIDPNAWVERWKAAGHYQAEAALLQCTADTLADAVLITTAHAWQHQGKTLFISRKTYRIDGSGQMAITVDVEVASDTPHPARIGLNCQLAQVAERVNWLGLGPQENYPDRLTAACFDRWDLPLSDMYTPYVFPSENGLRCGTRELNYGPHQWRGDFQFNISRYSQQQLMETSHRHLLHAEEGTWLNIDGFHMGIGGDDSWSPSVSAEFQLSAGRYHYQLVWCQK

Structure (SMILES): N#C/C(=C\c1cn(CCOc2ccccc2F)c2ccccc12)C(=O)NCc1cccs1
EC50 [1]: > 89.2 µM (inactive)

Structure (SMILES): O=C(Oc1c(Cl)cc(Cl)c2cccnc12)c1ccco1
AC50 [4]: 2.63 µM (active)
IC50 [5]: > 66.6 µM (inactive)
EC50 [6]: 2.12 µM (active)
EC50 [7]: 15.3 µM (active)
EC50 [8]: 0.098 µM (active)
AC50 [9]: < 0.195 µM (active)
EC50 [10]: 10.1 µM (active)
EC50 [11]: > 180 µM (inactive)
EC50 [12]: 56.7 µM (inconclusive)

Structure (SMILES): COC(=O)Nc1csc2c1NC(=O)CCCC2
IC50 [13]: 5.54 µM (active)

Structure (SMILES): O=C(Oc1ccccc1)c1cccc(C(=O)Oc2ccccc2)c1
AC50 [17]: 7.94 µM (inconclusive)

Structure (SMILES): CC(C)C(=O)Nc1ccc(N)cc1
EC50 [18]: > 100 µM (inactive)

Structure (SMILES): COc1ccc2c(c1)[nH]c1c(C)nccc12 [HARMINE HYDROCHLORIDE]
AC50 [27]: 14.4 µM (active)
IC50 [28]: > 79 µM (inactive)
EC50 [29]: 24.8 µM (inactive)
IC50 [30]: 6.96 µM (active)

Second part, led by results:

IC50 [2]: > 20 µM (inactive)
Structure (SMILES): Cc1ccc(Nc2nc(N)nc(CN3CCCCCC3)n2)cc1
AC50 [3]: 117 µM (active)

IC50 [14]: 17.7 µM (active)
IC50 [15]: 22.5 µM (active)
IC50 [16]: > 100 µM (inactive)
Structure (SMILES): COc1ccc(Cc2c(C(C)(C)C)nc3ccc(Cl)cn23)c(C)c1

Ki [19]: 0.794 µM (active)
Ki [20]: 0.00631 µM (active)
Ki [21]: 0.002 µM (active)
Ki [22]: 0.0631 µM (active)
Ki [23]: 0.251 µM (active)
Ki [24]: 0.251 µM (active)
Ki [25]: 0.794 µM (active)
Ki [26]: 0.01 µM (active)
Structure (SMILES): COCC(C)Nc1cc(-c2c[nH]c3ncccc23)cc(Cl)n1 (stereo not given)
